# Measurements taken from US6570006B1, “Bacterial gene and method of treating a gram negative bacterial infection” (priority 1998, dated 2003).
# “Also recorded” adds a separate entry of the source. Read-outs that look alike come from different tables or passages of the source.
# Key:
# [1] = test system: CWG312 (F470 with a waaY::aacC1 insertion); experiment: SDS and novobiocin sensitivity testing (MIC), waaY mutant; assay type: cell-based, Escherichia coli; conditions: for MIC / sensitivity compared with F470 (in words): strain CWG312 (waaY) versus F470 parent
# Method: (§1) Bacterial Strains and Growth Conditions—E. coli F470 is an R-LPS derivative of an O8:K27 strain (Schmidt, G. et al, 1969), and serves as the prototype for R1 core OS studies. Derivatives of F470 used in this study include CWG296 (F470 with a waaP::aacC1 insertion), CWG297 (F470 with a waaQ::aacC1 insertion), and CWG312 (F470 with a waaY::aacC1 insertion). Bacteria were grown in Luria-Bertani (LB) broth at 37° C. Growth media were supplemented with ampicillin (100 μg/mL), gentamicin (15 μg/mL), or chloramphenicol (30 μg/mL) when necessary.
# (§2) Sodium dodecyl sulfate (SDS) and Novobiocin Sensitivity Testing—Two-fold serial dilutions of SDS (200→0.1 mg/mL) and novobiocin (200→1.6 μg/mL) were made in 5 mL volumes of LB. Each series of tubes was point inoculated from an overnight culture of the strain to be tested, and then incubated with shaking at 37° C. Growth was scored as positive if after 8 hours the culture was visibly turbid (i.e. A600>0.2).
# To test this possibility, strain CWG312 was derived by insertion of the aacC1 gene into the unique SnaBI site in the waaY coding region of F470 (FIG. 2B). The LPS from the resulting mutant migrated similarly to that of the F470 parent in sodium dodexyl sulphate-polyacrylamine gel electrophoresis (SDS-PAGE) (data not shown), precluding any significant effect of the mutation on core OS extension.
# CWG296 (waaP) + pWQ909 = experiment: SDS and novobiocin sensitivity testing (MIC), complemented waaP mutant; assay type: cell-based, Escherichia coli; conditions: for resistance after introduction of multicopy waaP (in words): CWG296 with plasmid pWQ909
# Method: as §1
# Cloning and Expression of waaP for Complementation—Oligonucleotide primers for the amplification of waaP from the F470 chromosome were designed to introduce appropriate restriction sites for cloning. The forward primer (5′-TGTGGATccAAATAGTGGGCACTCA-3′)(SEQ. I.D. No. 7) introduced a BamHI site (underlined) 32 base pairs downstream of the waaP stop codon, and the complementary reverse primer (5′-GGGTGGTCcatATGGTTGAACTTAA-3′)(SEQ. I.D. No. 8) introduced an NdeI site (underlined) overlapping the waaP start codon (bases shown in lower case indicate mismatches between the primer and chromosomal sequences). The coding region for waaP alone was subsequently isolated as a BamHI-NdeI fragment, and cloned behind the arabinose-inducible PBAD promoter of the expression vector pBAD18, to generate plasmid pWQ909. L-arabinose was used at a final concentration of 0.002% to induce expression of WaaP from plasmid pWQ909.
# as §2
# Strain CWG296 was derived by insertion of the aacC1 gene into the unique NruI site in the waaP coding region of F470 (FIG. 2B). […]
# [2] = test system: CWG296 (F470 with a waaP::aacC1 insertion); experiment: SDS and novobiocin sensitivity testing (MIC), waaP mutant; assay type: cell-based, Escherichia coli; conditions: for MIC: Escherichia coli, LB, 37° C., 8 hours; for MIC / sensitivity of the mutant (in words): strain CWG296 (waaP); for increase in the susceptibility: strain CWG296 (waaP) versus F470 parent
# Method: as §1, §2
# Strain CWG296 was derived by insertion of the aacC1 gene into the unique NruI site in the waaP coding region of F470 (FIG. 2B). The resulting mutant was hypersensitive to novobiocin and SDS (Table II), as expected based on results from previous studies (Helander, I. M. et al., 1989; Parker, C. T. et al., 1992).
# [3] = test system: CWG297 (F470 with a waaQ::aacC1 insertion); experiment: SDS and novobiocin sensitivity testing (MIC), waaQ mutant; assay type: cell-based, Escherichia coli; conditions: for MIC / sensitivity compared with F470 (in words): strain CWG297 (waaQ) versus F470 parent
# Method: as §1, §2
# Strain CWG297 was derived by insertion of the aacC1 gene into the unique NruI site in the waaQ coding region of F470 (FIG. 2B).
# E. coli F470 (parent) = experiment: SDS and novobiocin sensitivity testing (MIC), parent strain; assay type: cell-based; conditions: Escherichia coli, LB, 37° C., growth scored after 8 hours, read-out: Minimum inhibitory concentration (MIC) novobiocin
# Method: as §1, §2
# [4] = Escherichia coli, 8 h, read-out: Minimum inhibitory concentration (MIC) novobiocin
SMILES,MIC / sensitivity compared with F470 (in words) ([1]; sulfate),resistance after introduction of multicopy waaP (in words) (CWG296 (waaP) + pWQ909),MIC ([2]; read-out: Minimum inhibitory concentration (MIC) SDS),sensitivity of the mutant (in words) [2],increase in the susceptibility [2],MIC / sensitivity compared with F470 (in words) ([3]; sulfate),MIC (E. coli F470 (parent)),"MIC [1, 4]",MIC / sensitivity compared with F470 (in words) [1],"MIC (CWG296 (waaP) + pWQ909; Escherichia coli, strain CWG296 (waaP) + pWQ909, LB, 37° C., 8 hours, read-out: Minimum inhibitory concentration (MIC) novobiocin)",MIC ([2]; read-out: Minimum inhibitory concentration (MIC) novobiocin),"MIC [3, 4]",MIC / sensitivity compared with F470 (in words) [3]
"CCCCCCCCCCCCOS(=O)(=O)[O-].[Na+] [SDS, Sodium dodecyl sulfate]",slightly less than for F470; also recorded: minor increase in the sensitivity,restored wild-type levels of resistance,100 µg/mL,hypersensitive,> 1000 fold,slightly less than for F470; also recorded: minor increase in the sensitivity,–,–,–,–,–,–,–
CO[C@@H]1[C@@H](OC(N)=O)[C@@H](O)[C@H](Oc2ccc3c(O)c(NC(=O)c4ccc(O)c(CC=C(C)C)c4)c(=O)oc3c2C)OC1(C)C [novobiocin],–,restored wild-type levels of resistance,–,hypersensitive,32 fold,–,200 µg/mL,100 µg/mL,slightly less than for F470; also recorded: minor increase in the sensitivity,100 µg/mL,6.3 µg/mL,100 µg/mL,slightly less than for F470; also recorded: minor increase in the sensitivity
